Measured values from patent US20210353579A1, “HIGH PENETRATION COMPOSITIONS AND USES THEREOF” (Techfields Pharma Co., Ltd., priority 2006, published 2021).
Converted amounts (≈) assume the structure as drawn.

Tests used:
rat = conditions: rats
Method: The acute toxicity of the prodrug compounds and parent compounds are measured by LD50 of rat.

human skin tissue = conditions: pH 7.4; for In vitro penetration rate (apparent flux), parent compounds: human, 20 %
[1] = Plasma levels after transdermal administration to hairless mice; format: in vivo; conditions: for Peak plasma concentration of parent compound after prodrug compound / t, time to peak plasma level of parent compound after prodrug compound: mouse, in vivo; for t, time to peak plasma level after parent compound: parent compound administered (time when taken orally); for Peak plasma concentration after parent compound: parent compound administered, hairless mice
Method: Tested compounds (20% solution or suspension in 1 mL isopropanol) are administered transdermally to the skin of intact hairless mice. The plasma levels of the parent compounds are determined by HPLC.

mice = assay: Analgesic activity, acetic acid writhing; format: in vivo
Method: The prodrug compounds are administered either transdermally or orally. The parent compounds are administered orally. The number of writhing that occurred when mice are administered the acetic acid solution are counted, and the rate of inhibition based on the control group which was not pretreated with any test compounds is calculated. […] The A group is the control group.

rats = assay: Antipyretic activity, E. coli suspension as pyrogen; format: in vivo; conditions: in °C (unit assumed)
Method: Rats are administered with sterilized E. coli suspension as a pyrogen. Each group of rats are administered with a prodrug compounds or parent compounds at a dosage specified below. The prodrug compounds are administered either orally or transdermally. The parent compounds are administered orally.

[2] = Solubility in water / aqueous solubility of HPPs and parent drugs; conditions: water
[3] = 50 mg/kg transdermally, 60 minutes before acetic acid
[4] = 50 mg/kg transdermally, 30 min before acetic acid
[5] = 100 mg/kg transdermally, 30 min before acetic acid
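Throughout, for LD50 of HPP: acute toxicity in rats expressed as LD50, determined for both prodrugs and their parent compounds.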

In vitro penetration rate (apparent flux), parent compounds (human skin tissue) | solubility [2] | t, time to peak plasma level after parent compound [1] | Peak plasma concentration after parent compound [1] | Compound | LD50 of HPP (rat) | In vitro penetration rate (apparent flux), prodrug compounds (human skin tissue) | Peak plasma concentration of parent compound after prodrug compound [1] | also measured
<1 μg/cm^2/h | < 100 µg/mL | 2 to 4 h | 0.1 mg/L | Cc1cc(NC(=O)C2=C(O)c3ccccc3S(=O)(=O)N2C)no1 [Isoxicam, isoxicam, reference compound] |  |  |  | 
30 μg/cm^2/h | 100 µg/mL (≈ 392 µM) | 2 to 4 h | 10 mg/L | O=C(c1ccccc1)c1ccc2n1CCC2C(=O)O (stereo not drawn) [Ketorolac, ketorolac, reference compound] |  |  |  | 
<1 μg/cm^2/h | < 100 µg/mL | 2 to 4 h | 0.1 mg/L | CN1C(C(=O)Nc2ccccn2)=C(O)c2sc(Cl)cc2S1(=O)=O [Lornoxicam, lornoxicam, reference compound] |  |  |  | 
30 μg/cm^2/h | 100 µg/mL (≈ 406 µM) | 2 to 4 h | 10 mg/L | CC(C(=O)O)c1ccc(CC2CCCC2=O)cc1 (stereo not drawn) [Loxoprofen, loxoprofen, reference compound] |  |  |  | 
10 μg/cm^2/h | < 100 µg/mL | 2 to 4 h | 0.1 mg/L | Cc1ccc(Cl)c(Nc2ccccc2C(=O)O)c1Cl [Meclofenamic acid, meclofenamic acid, reference compound] |  |  |  | 
<1 μg/cm^2/h | < 100 µg/mL | 2 to 4 h | 0.1 mg/L | Cc1cnc(NC(=O)C2=C(O)c3ccccc3S(=O)(=O)N2C)s1 [Meloxicam, meloxicam, reference compound] |  |  |  | 
30 μg/cm^2/h | 100 µg/mL (≈ 341 µM) | 2 to 4 h | 10 mg/L | O=C(O)CCc1nc(-c2ccccc2)c(-c2ccccc2)o1 [Oxaprozin, oxaprozin, reference compound] |  |  |  | 
30 μg/cm^2/h | 100 µg/mL (≈ 397 µM) | 2 to 4 h | 10 mg/L | CC(C(=O)O)c1ccc(N2CC=CC2)c(Cl)c1 (stereo not drawn) [Pirprofen, pirprofen, reference compound] |  |  |  | 
30 μg/cm^2/h | 100 µg/mL (≈ 384 µM) | 2 to 4 h | 10 mg/L | CC(C(=O)O)c1ccc(C(=O)c2cccs2)cc1 (stereo not drawn) [Suprofen, suprofen, reference compound] |  |  |  | 
30 μg/cm^2/h | 100 µg/mL (≈ 384 µM) | 2 to 4 h | 10 mg/L | CC(C(=O)O)c1ccc(C(=O)c2ccccc2)s1 (stereo not drawn) [Tiaprofenic acid, tiaprofenic acid, reference compound] |  |  |  | 
30 μg/cm^2/h | 100 µg/mL (≈ 335 µM) | 2 to 4 h | 10 mg/L | CC(C(=O)O)c1ccc2c(c1)CC(=O)c1ccccc1S2 (stereo not drawn) [Zaltoprofen, zaltoprofen, reference compound] |  |  |  | 

Further lines, the compound ahead of its results:

Compound | In vitro penetration rate (apparent flux), parent compounds (human skin tissue) | solubility [2] | t, time to peak plasma level after parent compound [1] | Peak plasma concentration after parent compound [1] | LD50 of HPP (rat) | In vitro penetration rate (apparent flux), prodrug compounds (human skin tissue) | Peak plasma concentration of parent compound after prodrug compound [1] | also measured
4-N,N-dimethylaminobutyryloxy-2-methyl-N-[5-Methyl-3-isoxolyl-2H-1,2-benzothiazine-3-carboxamide 1,1-dioxide].HCl |  |  |  |  | 570 mg/kg | 1800 μg/cm^2/h | 20 mg/L | t, time to peak plasma level of parent compound after prodrug compound [1]: 50 min; % (rate of writhing inhibition) (mice; [3]): 55%; No. of Writhing (mice; [3]): 15.8; body temperature, t = 0 min (rats; 25 mg/kg transdermally): 37.52 ± 0.06; body temperature, t = 90 min (rats; 25 mg/kg transdermally): 36.62 ± 0.07; body temperature, t = 180 min (rats; 25 mg/kg transdermally): 36.53 ± 0.06; body temperature, t = 270 min (rats; 25 mg/kg transdermally): 36.60 ± 0.05
Cc1cnc(NC(=O)C2=C(OC(=O)CCCN(C)C)c3ccccc3S(=O)(=O)N2C)s1.Cl [4-N,N-dimethylaminobutyryloxy-2-methyl-N-(5-methyl-2-thiazolyl)-2H-1,2-benzothiazine-3-carboxamide-1,1-dioxide.HCl] |  |  |  |  | 590 mg/kg | 1900 μg/cm^2/h | 20 mg/L | % (rate of writhing inhibition) (mice; [3]): 48%; No. of Writhing (mice; [3]): 18.2; body temperature, t = 0 min (rats; 25 mg/kg transdermally): 37.57 ± 0.07; body temperature, t = 90 min (rats; 25 mg/kg transdermally): 36.53 ± 0.08; body temperature, t = 180 min (rats; 25 mg/kg transdermally): 36.52 ± 0.08; body temperature, t = 270 min (rats; 25 mg/kg transdermally): 36.50 ± 0.07
CN(C)CCCC(=O)OC1=C(C(=O)Nc2ccccn2)N(C)S(=O)(=O)c2cc(Cl)sc21.Cl [6-chloro-4-N,N-dimethylaminobutyryloxy-2-methyl-N-2-pyridinyl-2H-thieno[2,3-e]-1,2-thiazine-3-carboxamide 1,1-dioxide.HCl] |  |  |  |  | 580 mg/kg | 1600 μg/cm^2/h | 20 mg/L | % (rate of writhing inhibition) (mice; [3]): 53%; No. of Writhing (mice; [3]): 16.5; body temperature, t = 0 min (rats; 25 mg/kg transdermally): 37.55 ± 0.05; body temperature, t = 90 min (rats; 25 mg/kg transdermally): 36.66 ± 0.06; body temperature, t = 180 min (rats; 25 mg/kg transdermally): 36.60 ± 0.06; body temperature, t = 270 min (rats; 25 mg/kg transdermally): 36.61 ± 0.07
CC(=O)O.CCN(CC)CCOC(=O)C(C)c1cccc(C(=O)c2ccccc2)c1 (stereo not drawn) [diethylaminoethyl 2-(3-benzoylphenyl) propionate.AcOH] |  |  |  |  | 300 mg/kg | 1150 μg/cm^2/h | 20 mg/L | t, time to peak plasma level of parent compound after prodrug compound [1]: 40 min; % (rate of writhing inhibition) (mice; [4]): 59%; No. of Writhing (mice; [4]): 14.2; body temperature, t = 0 min (rats; 50 mg/kg transdermally): 37.28 ± 0.06; body temperature, t = 90 min (rats; 50 mg/kg transdermally): 36.65 ± 0.06; body temperature, t = 180 min (rats; 50 mg/kg transdermally): 36.58 ± 0.08; body temperature, t = 270 min (rats; 50 mg/kg transdermally): 36.60 ± 0.07
CC(=O)O.CCN(CC)CCOC(=O)C(C)c1cccc(Oc2ccccc2)c1 (stereo not drawn) [diethylaminoethyl 2-(3-phenoxyphenyl) propionate.AcOH] |  |  |  |  | 1500 mg/kg | 1250 μg/cm^2/h | 20 mg/L | t, time to peak plasma level of parent compound after prodrug compound [1]: 40 min; % (rate of writhing inhibition) (mice; [4]): 60%; No. of Writhing (mice; [4]): 14.0; body temperature, t = 0 min (rats; 50 mg/kg transdermally): 37.28 ± 0.06; body temperature, t = 90 min (rats; 50 mg/kg transdermally): 36.65 ± 0.06; body temperature, t = 180 min (rats; 50 mg/kg transdermally): 36.58 ± 0.08; body temperature, t = 270 min (rats; 50 mg/kg transdermally): 36.56 ± 0.07
CC(=O)O.CCN(CC)CCOC(=O)C(C)c1ccc2oc(-c3ccc(Cl)cc3)nc2c1 (stereo not drawn) [diethylaminoethyl 2-(4-chlorophenyl)-α-methyl-5-benzoxazoleacetate.AcOH] |  |  |  |  | 1300 mg/kg | 4000 μg/cm^2/h | 2000 mg/L | t, time to peak plasma level of parent compound after prodrug compound [1]: 50 min; % (rate of writhing inhibition) (mice; [5]): 51%; No. of Writhing (mice; [5]): 17.1; body temperature, t = 0 min (rats; 100 mg/kg transdermally): 37.25 ± 0.07; body temperature, t = 90 min (rats; 100 mg/kg transdermally): 36.82 ± 0.06; body temperature, t = 180 min (rats; 100 mg/kg transdermally): 36.70 ± 0.05; body temperature, t = 270 min (rats; 100 mg/kg transdermally): 36.50 ± 0.08
CC(=O)O.CCN(CC)CCOC(=O)C(C)c1ccc2cc(OC)ccc2c1 (stereo not drawn) [diethylaminoethyl 2-(6-methoxy-2-naphthyl)propionate.AcOH] |  |  |  |  | 2200 mg/kg | 3500 μg/cm^2/h | 2000 mg/L | t, time to peak plasma level of parent compound after prodrug compound [1]: 50 min; % (rate of writhing inhibition) (mice; [5]): 51%; No. of Writhing (mice; [5]): 17.1; body temperature, t = 0 min (rats; 100 mg/kg transdermally): 37.33 ± 0.07; body temperature, t = 90 min (rats; 100 mg/kg transdermally): 36.80 ± 0.06; body temperature, t = 180 min (rats; 100 mg/kg transdermally): 36.72 ± 0.05; body temperature, t = 270 min (rats; 100 mg/kg transdermally): 36.50 ± 0.08
CC(=O)O.CC(C)Cc1ccc(C(C)C(=O)OCCN(C)C)cc1 (stereo not drawn) [dimethylaminoethyl 2-(ρ-isobutylphenyl) propionate.AcOH] |  |  |  |  | 1600 mg/kg |  |  | 
CC(=O)Oc1ccccc1C(=O)OCCN(C)C [dimethylaminoethyl acetylsalicylate.AcOH] |  |  |  |  | 2200 mg/kg |  |  | 
